PMC6630699, “Synthesis and Cytotoxicity Evaluation of DOTA-Conjugates of Ursolic Acid” (Molecules, 2019)
Counter-ions that a name gives are not always drawn.

Key:
[1] = system: MCF-7 (breast adenocarcinoma); assay: SRB cytotoxicity assay, MCF-7; assay type: cell-based, human; conditions: for EC50: Homo sapiens, MCF7, SRB assay, 72 h of treatment; for Selectivity index SI MCF-7: SI = EC50 (NIH 3T3)/EC50 (MCF-7)
Excerpt: (§1) Due to cytotoxicity evaluation, the prepared UA-DOTA conjugates were screened in rhodamine B assays employing a series of human tumor cell lines and non-malignant mouse fibroblasts (NIH 3T3).
(§2) The cell lines used are human cancer cell lines: A2780 (ovarian carcinoma), HT29 (colon adenocarcinoma), MCF-7 (breast adenocarcinoma), A375 (melanoma), FaDu (pharynx squamous cell carcinoma) and non-malignant mouse fibroblasts NIH 3T3; all cell lines were obtained from the Department of Oncology (Martin-Luther-University Halle-Wittenberg). Cultures were maintained as monolayers in RPMI 1640 medium with L-glutamine (Capricorn Scientific GmbH, Ebsdorfergrund, Germany) supplemented with 10% heat inactivated fetal bovine serum (Sigma-Aldrich Chemie GmbH, Steinheim, Germany) and penicillin/streptomycin (Capricorn Scientific GmbH, Ebsdorfergrund, Germany) at 37 °C in a humidified atmosphere with 5% CO2.
(§3) The cytotoxicity of the compounds was evaluated using the sulforhodamine-B (Kiton-Red S, ABCR) micro culture colorimetric assay. Cells were seeded into 96-well plates on day 0 at appropriate cell densities to prevent confluence of the cells during the period of experiment. After 24 h, the cells were treated with six different concentrations (1, 3, 7, 12, 20, and 30 µM) minimum. The final concentration of DMSO/DMF never exceeded 0.5%, which was non-toxic to the cells. After a 72-h treatment, the supernatant medium from the 96-well plates was discarded, the cells were fixed with 10% trichloroacetic acid (TCA) and allowed to rest at 4 °C. After 24 h fixation, the cells were washed in a strip washer and dyed with SRB solution (100 µL, 0.4%, in 1% acetic acid) for about 20 min. After dying, the plates were washed four times with 1% acetic acid to remove the excess of the dye and allowed to air-dry overnight. Tris base solution (200 µL, 10 mM) was added to each well and absorbance was measured at λ = 570 nm using a 96 well plate reader (Tecan Spectra, Crailsheim, Germany). The EC50 values were averaged from three independent experiments performed each in triplicate calculated from semi logarithmic dose response curves applying a non-linear 4P Hills-slope equation (GraphPad Prism5; variables top and bottom were set to 100 and 0, respectively).

[2] = system: HT29 (colon adenocarcinoma); assay: SRB cytotoxicity assay, HT29; assay type: cell-based, human; conditions: for EC50: Homo sapiens, HT-29, SRB assay, 72 h of treatment; for Selectivity index SI HT29: SI = EC50 (NIH 3T3)/EC50 (HT29)
Excerpt: as §1, §2, §3

[3] = system: A2780 (ovarian carcinoma); assay: SRB cytotoxicity assay, A2780; assay type: cell-based, human; conditions: for EC50: Homo sapiens, A2780, 72 h, SRB assay, 72 h of treatment; for Selectivity index SI A2780: SI = EC50 (NIH 3T3)/EC50 (A2780)
Excerpt: as §1, §2, §3

[4] = system: non-malignant mouse fibroblasts NIH 3T3; assay: SRB cytotoxicity assay, NIH 3T3; assay type: cell-based; conditions: NIH3T3, 72 h of treatment
Excerpt: as §1, §2, §3

[5] = system: FaDu (pharynx squamous cell carcinoma); assay: SRB cytotoxicity assay, FaDu; assay type: cell-based, human; conditions: for EC50: Homo sapiens, FaDu, SRB assay, 72 h of treatment; for Selectivity index SI FaDu: SI = EC50 (NIH 3T3)/EC50 (FaDu)
Excerpt: as §1, §2, §3

human tumor cell lines = assay: SRB cytotoxicity assay, statements over the whole cell line panel; assay type: cell-based; conditions: summary over all tumor cell lines
Excerpt: as §1, §2, §3

A375 (melanoma) = assay: SRB cytotoxicity assay, A375; assay type: cell-based, human; conditions: for EC50: Homo sapiens, A-375, SRB assay, 72 h of treatment; for Selectivity index SI A375: SI = EC50 (NIH 3T3)/EC50 (A375)
Excerpt: as §1, §2, §3

melting point | SMILES | EC50 [1] | Selectivity index SI MCF-7 [1] | EC50 [2] | Selectivity index SI HT29 [2] | EC50 [3] | Selectivity index SI A2780 [3] | EC50 [4] | EC50 [5] | Selectivity index SI FaDu [5] | EC50 (human tumor cell lines) | EC50 (A375 (melanoma)) | Selectivity index SI A375 (A375 (melanoma))
– | COc1cccc2c1C(=O)c1c(O)c3c(c(O)c1C2=O)C[C@@](O)(C(=O)CO)C[C@@H]3O[C@H]1C[C@H](N)[C@H](O)[C@H](C)O1 [DRC, doxorubicin hydrochloride, reference compound] | 1.1 ± 0.3 µM | 0.05 | 0.9 ± 0.2 µM | 0.07 | 0.01 ± 0.01 µM | 6.00 | 0.06 ± 0.03 µM | – | – | – | – | –
– | C[C@H]1[C@H](C)CC[C@]2(C(=O)O)CC[C@]3(C)C(=CC[C@@H]4[C@@]5(C)CC[C@H](O)C(C)(C)[C@@H]5CC[C@]43C)[C@H]12 [UA, Ursolic acid] | 12.7 ± 0.1 µM | 1.03 | 10.6 ± 0.7 µM | 1.24 | 11.7 ± 0.6 µM | 1.12 | 13.1 ± 1.1 µM | – | – | – | – | –
180 to 182 °C | CC(C)(C)OC(=O)CN1CCNCCN(CC(=O)OC(C)(C)C)CCN(CC(=O)OC(C)(C)C)CC1 [compound 6, Tri-tert-butyl 2,2′,2’’-(1,4,7,10-tetraazacyclododecane-1,4,7-triyl)triacetate] | 11.3 ± 2.3 µM | 1.53 | 8.7 ± 2.7 µM | 1.99 | 10.5 ± 3 µM | 1.65 | 17.3 ± 0.1 µM | 9.5 ± 0.9 µM | 1.82 | 10 to 14 µM | 12.4 ± 2.7 µM | 1.40
– | O=C(CN1CCNCCN(CC(=O)OCc2ccccc2)CCN(CC(=O)OCc2ccccc2)CC1)OCc1ccccc1 [compound 7, Tribenzyl 2,2’,2’’-(1,4,7,10-tetraazacyclododecane-1,4,7-triyl)triacetate] | 4.1 ± 0.5 µM | 1.10 | 2 ± 0.2 µM | 2.25 | 3.8 ± 0.3 µM | 1.18 | 4.5 ± 0.3 µM | 3.9 ± 0.7 µM | 1.15 | < 5 µM | 4.7 ± 0.3 µM | 0.96
142 to 146 °C | CC(=O)O[C@H]1CC[C@]2(C)[C@H]3CC=C4[C@@H]5[C@@H](C)[C@H](C)CC[C@]5(C(=O)NCCN5CCN(C(=O)CN6CCN(CC(=O)OCc7ccccc7)CCN(CC(=O)OCc7ccccc7)CCN(CC(=O)OCc7ccccc7)CC6)CC5)CC[C@@]4(C)[C@]3(C)CC[C@H]2C1(C)C [compound 13, Tribenzyl 2,2’,2’’-[10-[2-[4-[2-(3β-acetyloxy-urs-12-en-28-oylamino)ethyl]piperazin-1-yl]-2-oxoethyl]-1,4,7,10-tetraazacyclododecane-1,4,7-triyl]triacetate] | 3.3 ± 0.2 µM | 1.09 | 4 ± 0.4 µM | 0.90 | 2.1 ± 0.4 µM | 1.71 | 3.6 ± 0.5 µM | 6 ± 0.1 µM | 0.60 | < 6 µM | – | –
– | C[C@H]1[C@H](C)CC[C@]2(C(=O)NCCNC(=O)CN3CCN(CC(=O)OC(C)(C)C)CCN(CC(=O)OC(C)(C)C)CCN(CC(=O)OC(C)(C)C)CC3)CC[C@]3(C)C(=CC[C@@H]4[C@@]5(C)CC[C@H](O)C(C)(C)[C@@H]5CC[C@]43C)[C@H]12 [compound 29, Tri-tert-butyl 2,2’,2’’-[10-[2-[2-(3β-hydroxy-urs-12-en-28-oylamino)ethyl]amino-2-oxoethyl]-1,4,7,10-tetraazacyclododecane-1,4,7-triyl]triacetate] | – | – | 1.7 ± 0.4 µM | 1.35 | 1.6 ± 0.5 µM | 1.44 | 2.3 ± 0.7 µM | 2.9 ± 0.4 µM | 0.79 | – | 2 ± 0.3 µM | 1.15
